From PMC6492180, “Cytome micronucleus assays with a metabolically competent human derived liver cell line (Huh6): A promising approach for routine testing of chemicals?” (Environmental and Molecular Mutagenesis, 2018)
Like-named read-outs stand apart in the source and are kept apart here. Marks after values point to notes of the source that are not given here.

Tests used:
[1] = test system: Huh6 cells
Method: All experiments were performed in duplicate.
3.8–4.0 × 10^5 cells per well were seeded into 6‐well plates with 3 mL of RPMI (4% FBS) for 12 hr, then dilutions of stock solutions of the diagnostic mutagens were added for different time periods (4, 24, and 48 hr). In each experimental series solvent controls were included. Subsequently, the cells were washed twice with 3.0 mL medium. […] Finally, the cells were washed and trypsinised. Afterwards the cells were washed twice with 8.0 mL RPMI and collected on slides by cytocentrifugation (600 rpm, 5 min). The slides were air dried, fixed, and stained with DiffQuick according to the instructions of the manufacturer. For each experimental point, two cultures were tested per dose. From each culture ≥1,000 BN cells were evaluated under 400‐fold magnification (Nikon Photophot‐FXA, Tokyo, Japan). At least 2,000 binucleated cells were analyzed per dose for the determination of the different nuclear anomalies (MN, NBuds, and NBs).
The experiments were performed as described in the previous chapter. The cells were exposed only to one dose of the different mutagens and were cultivated after the seeding in 6‐well plates which contained 4% or 10% FBS in RPMI, respectively.
Data were evaluated by generalized linear model with Poisson counts. Chi‐square tests for overdispersion were applied. […] P values ≤0.05 were considered statistically significant.
^150-60 000 cells were seeded in 6 well plates with 3 ml RPMI (4% FBS), subsequently different solutions of the test compound (dissolved in medium) were added. After treatment for different time periods, the cells was washed and processed as described in the Material and Method section. […] From each culture 1000 binoculated cells were evaluated. BN-MN – number of micronucleated cells; MN - total number of micronuclei; CBPI – cytokinesis-block proliferation index
^1The experiments were conducted essentially as described in the footnote of Table S1A-I. *p≤0.05

[2] = test system: HepaRG; conditions: HepaRG; ref Le Hegarat et al., 2010; cited from earlier work
[3] = test system: HepG2; conditions: HepG2; ref Knasmuller et al., 1999; cited from earlier work
[4] = test system: Human lymphocytes; conditions: Human lymphocytes, + S9, cited from earlier work
[5] = ref IARC (2018); cited from earlier work
[6] = 10% FBS, 24 hr treatment, 50 µM
[7] = 10% FBS, 24 hr treatment, 100 µM

Cn1c(N)nc2c3cccnc3ccc21 [IQ, 2‐Amino‐3‐methyl‐3H‐imidazo[4,5‐f]quinoline]
MN effects after 24 hr (or longer) compared with 4 hr treatment (in words) ([1]; 4% FBS): more pronounced effects | BN-MN (number of micronucleated cells) ([1]; 4% FBS, 4hrs, […] µM): 16.0 ± 2.8 ‰ | Bridges ([1]; 4% FBS, 4hrs, […] µM): 0.5 ± 0.7 ‰ | Buds ([1]; 4% FBS, 4hrs, […] µM): 17.5 ± 2.1 ‰ | CBPI ([1]; 4% FBS, 4hrs, […] µM): 1.9 ± 0.1 | MN (total number of micronuclei) ([1]; 4% FBS, 4hrs, […] µM): 16.0 ± 2.8 ‰ | BN-MN (number of micronucleated cells) ([1]; 4% FBS, 4hrs, 50 µM): 18.0 ± 4.2 ‰ | Bridges ([1]; 4% FBS, 4hrs, 50 µM): 0.5 ± 0.7 ‰ | Buds ([1]; 4% FBS, 4hrs, 50 µM): 16.5 ± 0.7 ‰ | CBPI ([1]; 4% FBS, 4hrs, 50 µM): 1.8 ± 0.1 | MN (total number of micronuclei) ([1]; 4% FBS, 4hrs, 50 µM): 19.0 ± 4.2 ‰ | BN-MN (number of micronucleated cells) ([1]; 4% FBS, 4hrs, 100 µM): 23.5 ± 5.0* ‰ | Bridges ([1]; 4% FBS, 4hrs, 100 µM): 1.5 ± 0.7 ‰ | Buds ([1]; 4% FBS, 4hrs, 100 µM): 21.5 ± 2.1* ‰ | CBPI ([1]; 4% FBS, 4hrs, 100 µM): 1.9 ± 0.0 | MN (total number of micronuclei) ([1]; 4% FBS, 4hrs, 100 µM): 24.5 ± 5.0* ‰ | BN-MN (number of micronucleated cells) ([1]; 4% FBS, 24hrs, […] µM): 18.5 ± 0.7 ‰ | Bridges ([1]; 4% FBS, 24hrs, […] µM): 0.0 ± 0.0 ‰ | Buds ([1]; 4% FBS, 24hrs, […] µM): 10.5 ± 2.1 ‰ | CBPI ([1]; 4% FBS, 24hrs, […] µM): 1.9 ± 0.0 | MN (total number of micronuclei) ([1]; 4% FBS, 24hrs, […] µM): 19.5 ± 0.7 ‰ | BN-MN (number of micronucleated cells) ([1]; 4% FBS, 24hrs, 50 µM): 26.0 ± 1.4* ‰ | Bridges ([1]; 4% FBS, 24hrs, 50 µM): 2.0 ± 0.0 ‰ | Buds ([1]; 4% FBS, 24hrs, 50 µM): 18.5 ± 2.1* ‰ | CBPI ([1]; 4% FBS, 24hrs, 50 µM): 1.7 ± 0.0 | MN (total number of micronuclei) ([1]; 4% FBS, 24hrs, 50 µM): 26.5 ± 0.7 ‰ | BN-MN (number of micronucleated cells) ([1]; 4% FBS, 24hrs, 100 µM): 39.0 ± 5.7* ‰ | Bridges ([1]; 4% FBS, 24hrs, 100 µM): 5.5 ± 0.7 ‰ | Buds ([1]; 4% FBS, 24hrs, 100 µM): 32.5 ± 5.0* ‰ | CBPI ([1]; 4% FBS, 24hrs, 100 µM): 2.0 ± 0.1 | MN (total number of micronuclei) ([1]; 4% FBS, 24hrs, 100 µM): 44.0 ± 1.4* ‰ | BN-MN (number of micronucleated cells) ([1]; 4% FBS, 48hrs, […] µM): 20.5 ± 2.1 ‰ | Bridges ([1]; 4% FBS, 48hrs, […] µM): 0.0 ± 0.0 ‰ | Buds ([1]; 4% FBS, 48hrs, […] µM): 22.0 ± 4.2 ‰ | CBPI ([1]; 4% FBS, 48hrs, […] µM): 1.9 ± 0.1 | MN (total number of micronuclei) ([1]; 4% FBS, 48hrs, […] µM): 21.5 ± 2.1 ‰ | BN-MN (number of micronucleated cells) ([1]; 4% FBS, 48hrs, 50 µM): 32.0 ± 5.7* ‰ | Bridges ([1]; 4% FBS, 48hrs, 50 µM): 1.0 ± 0.0 ‰ | Buds ([1]; 4% FBS, 48hrs, 50 µM): 29.5 ± 2.1* ‰ | CBPI ([1]; 4% FBS, 48hrs, 50 µM): 1.8 ± 0.1 | MN (total number of micronuclei) ([1]; 4% FBS, 48hrs, 50 µM): 32.5 ± 6.4* ‰ | BN-MN (number of micronucleated cells) ([1]; 4% FBS, 48hrs, 100 µM): 40.0 ± 2.8* ‰ | Bridges ([1]; 4% FBS, 48hrs, 100 µM): 3.0 ± 1.4 ‰ | Buds ([1]; 4% FBS, 48hrs, 100 µM): 35.5 ± 3.5* ‰ | CBPI ([1]; 4% FBS, 48hrs, 100 µM): 1.7 ± 0.1 | MN (total number of micronuclei) ([1]; 4% FBS, 48hrs, 100 µM): 47.5 ± 3.5* ‰ | BN-MN (number of micronucleated cells) [1, 6]: 47.5 ± 3.5* | Bridges [1, 6]: 0 ± 0.0 | Buds [1, 6]: 42 ± 2.8 | CBPI [1, 6]: 1.9 ± 0.0 | MN (total number of micronuclei) [1, 6]: 51.0 ± 1.4* | BN-MN (number of micronucleated cells) [1, 7]: 63.5 ± 6.4* | Bridges [1, 7]: 0.5 ± 0.7 | Buds [1, 7]: 49 ± 1.4 | CBPI [1, 7]: 1.8 ± 0.1 | MN (total number of micronuclei) [1, 7]: 68.5 ± 5.0* | MN frequencies with 10% serum compared with 4% serum (in words) ([1]; 24 hr treatment): stronger effects | Lowest effective concentration (LOEC) in micronucleus experiments ([1]; Huh6): 50.0 µM | Lowest effective concentration (LOEC) in micronucleus experiments [2]: Negative | NOEC (highest no observable effect concentration tested) [2]: 500 µM | Lowest effective concentration (LOEC) in micronucleus experiments [3]: 300.0 (Knasmuller et al., 1999) μM | Lowest effective concentration (LOEC) in micronucleus experiments ([4]; ref Fowler et al., 2014): 2200.0 µM | Lowest effective concentration (LOEC) in micronucleus experiments ([4]; ref Katic et al., 2010): 250.0 µM | IARC classification [5]: Formation of guanine adducts, formation of DNA‐reactive metabolites which cause DNA‐adducts; activation: CYP1A2 and NAT; detoxification: GSTs and SULTs; IARC: Group 2A

c1ccc2c(c1)cc1ccc3cccc4ccc2c1c34 [B(a)P, Benzo(a)pyrene]
CBPI ([1]; 4% FBS, 4hrs, 5 µM): 1.6 ± 0.1 | CBPI ([1]; 4% FBS, 4hrs, 10 µM): 1.6 ± 0.0 | CBPI ([1]; 4% FBS, 4hrs, 20 µM): 1.6 ± 0.1 | CBPI ([1]; 4% FBS, 24hrs, 5 µM): 1.4 ± 0.1 | CBPI ([1]; 4% FBS, 24hrs, 10 µM): 1.2 ± 0.1 | CBPI ([1]; 4% FBS, 48hrs, 0.4 µM): 1.9 ± 0.0 | CBPI ([1]; 4% FBS, 48hrs, 5 µM): 1.1 ± 0.1 | CBPI ([1]; 10% FBS, 24 hr treatment, 5 µM): 1.7 ± 0.0 | CBPI ([1]; 10% FBS, 24 hr treatment, 10 µM): 1.3 ± 0.1
